In ChEMBL document CHEMBL3399920, “Microwave-assisted synthesis, characterization and cytotoxic studies of novel estrogen receptor α ligands towards human breast cancer cells” (Bioorg Med Chem Lett, 2015) one finds IC50 data, which are given here for ten compounds.

In one assay the test system is HepG2. Put plainly: Cytotoxicity against human HepG2 cells after 48 hrs by MTT assay. Format: functional, cell-based. Particulars: HepG2, 48 h.
The next assay has as its system MCF7. Briefly: Cytotoxicity against human MCF7 cells after 48 hrs by MTT assay. Format: functional, cell-based. Particulars: MCF7, 48 h.
In another assay the test system is BT-549. Put plainly: Cytotoxicity against human BT549 cells after 48 hrs by MTT assay. To be noted: BT-549, 48 h. It is filed as functional, cell-based.
Assay [1] in a line: Cytotoxicity against human MCF10A cells after 72 hrs by MTT assay. Format: cell-based. Particulars: MCF-10A.
A further assay relates to MDA-MB-231. Put plainly: Cytotoxicity against human MDA-MB-231 cells after 48 hrs by MTT assay. It is filed as functional, cell-based. To be noted: MDA-MB-231, 48 h.

Turning to `Cc1ccc2nc(-c3ccc(N)cc3)ccc2c1`, the 50% inhibitory concentration (IC50) with HepG2 was determined as 41 µM; with MCF7, 34 µM.
Turning to `Cc1ccc2nc(-c3ccccc3)ccc2c1`, the IC50 in the assay on HepG2 and in the assay with MCF7 was over 50 µM in each case.
For `Clc1ccc(-c2ccc3ccccc3n2)c(Cl)c1`, the IC50 is over 100 µM with BT-549; over 100 µM in assay [1]; 31.6 µM in the assay on HepG2; 25 µM in the assay on MCF7; over 100 µM in the assay on MDA-MB-231.
On to `Nc1ccc(-c2ccc3ccc(Cl)cc3n2)cc1`, for which the IC50 is over 100 µM with BT-549; over 100 µM in assay [1]; 11 µM with HepG2; 6 µM with MCF7; over 100 µM in the assay on MDA-MB-231.
Take `Cc1ccc2nc(-c3cc(O)ccc3O)ccc2c1`: the IC50 with HepG2 stood at 19 µM; in the assay with MCF7, 28 µM.
As for `Oc1ccccc1-c1ccc2ccccc2n1`, the IC50 with HepG2 and in the assay on MCF7 was over 50 µM in each case.
On to `Cc1ccc2nc(-c3ccc(Cl)cc3Cl)ccc2c1`, for which the IC50 in the assay on HepG2 and with MCF7 was over 50 µM each time.
Consider `Cc1ccc2nc(-c3ccccc3Br)ccc2c1`, for which the IC50 in the assay with HepG2 and with MCF7 was over 50 µM in each case.
With `Cc1ccc2nc(-c3cccc([N+](=O)[O-])c3)ccc2c1`, the half-maximal inhibitory concentration (IC50) was over 100 µM with BT-549; over 100 µM in assay [1]; 37 µM with HepG2; 23 µM in the assay on MCF7; over 100 µM in the assay on MDA-MB-231.
Turning to `Brc1ccc(-c2ccc3ccccc3n2)cc1`, the IC50 in the assay on BT-549 is over 100 µM; in assay [1], 60.3 µM; in the assay with HepG2, 9 µM; in the assay with MCF7 it was 12 µM; with MDA-MB-231, over 100 µM.
